Legend:
[1] = system: analgesic effect of morphine; conditions: for central effects / central activity (in words): conclusion from Table I; for ID50 a / ID50 c: ratio of analgesic-effect ID50 a to constipating-effect ID50 c; for ID50 a / ID50 c / Antagonism with respect to the analgesic effect ID50 a: (°) inactive up to the maximum injectable dose; for Antagonism with respect to the analgesic effect ID50 a: subcutaneous antagonist, 5 min before 12 mg/kg s.c. morphine, female mice, limits in parentheses, where given, on next line
[2] = system: constipating effect of morphine; experiment: antagonism to the constipating effect of morphine (charcoal meal test, after A. F. Green, modified); conditions: for Antagonism with respect to the constipating effect ID50 c: subcutaneous antagonist, 5 min before 12 mg/kg s.c. morphine, female mice, extrapolated from least squares line log dose-response, limits in parentheses printed on next line; for ED50: Mus musculus, sc, read-out: Antagonism with respect to the constipating effect ID50 c
[3] = system: analgesic effect of morphine; experiment: animal or person; conditions: Mus musculus, sc, read-out: Antagonism with respect to the analgesic effect ID50 a
[4] = morphine control group, 12 mg/kg subcutaneous

Compound	animals showing the increase of the threshold of sensitivity [1, 4] [%]	average increase of the threshold of sensitivity [1, 4] [%]	central effects / central activity (in words) [1]	ID50 a / ID50 c [1]	Antagonism with respect to the analgesic effect ID50 a [1] [mg/kg]	Antagonism with respect to the constipating effect ID50 c [2] [mg/kg]	ID50 a relative to ID50 c (in words) ([1]; mouse, in vivo)	ED50 [3] [mg/kg]	ED50 [2] [mg/kg]
CN1CC[C@]23c4c5ccc(O)c4O[C@H]2[C@@H](O)C=C[C@H]3[C@H]1C5 [morphine]	100	100	–	–	–	–	–	–	–
C=CC[N+]1(C)CC[C@]23c4c5ccc(O)c4O[C@H]2C(=O)CC[C@@]3(O)[C@H]1C5.COS(=O)(=O)[O-] (some centres unmarked) [naloxone sulfomethylate]	–	–	have a certain central activity	1.68	5.039	2.99	–	–	–
C=CCN1CC[C@]23c4c5ccc(O)c4O[C@H]2C(=O)CC[C@@]3(O)[C@H]1C5 [naloxone, N-allylnoroxymorphone]	–	–	very active	0.11	–	–	much more active as antagonist of the analgesic effect than antagonist of the constipating effect	0.083	0.75
C=CC[N+]1(CC=C)CC[C@]23CCCC[C@H]2[C@H]1Cc1ccc(O)cc13 [levallorphan iodoallylate, iodoallylate of levallorphan]	–	–	–	> 3.61	> 60	16.68	–	–	–
C=CC[N+]1(CC=C)CC[C@]23CCCC[C@H]2[C@H]1Cc1ccc(O)cc13 [levallorphan bromoallylate, bromoallylate of levallorphan]	–	–	–	> 5.11	> 80	–	–	–	–
C=CC[N+]1(C)CC[C@]23c4c5ccc(O)c4O[C@H]2C(=O)CC[C@@]3(O)[C@H]1C5 (some centres unmarked) [naloxone bromomethylate]	–	–	have a certain central activity	0.47	–	–	–	5.12	10.8

From patent US4489079A, “Pharmaceutical compositions having a peripheral antagonistic action with respect to opiates” (priority 1981, dated 1984)
